Test results reported in EP0590998A1, “1-Styryl-3-t-butyl-1,3-propanedione derivative and external preparation for skin using the same” (SHISEIDO COMPANY LIMITED, priority 1992, dated 1994).

Legend:
[1] = Solubility of the 10% compounds in silicone base and squalane at room temperature; assay type: physicochemical; design: key: The compounds which can completely be dissolved in the solvents are indicated as ○; details: room temperature (25°C); for SOLUBILITY SILICONE KF56(10%): 10% compound in SILICONE KF56 (10cs); for SOLUBILITY SQUALANE(10%): 10% compound in squalane
Text: Solubilities of the following compounds 1 to 5 as examples of the 1-styryl-3-t-butyl-1,3-propanedione derivative and 2-hydroxy-4-methoxybenzophenone as a comparison are examined using the SILICONE KF56 (10cs; SHINETHU KACAKU INC.) as silicone base and squalane. Compound 1 : 1-styryl-3-t-butyl 1,3-propanedione Compound 2 : 1-p-methoxystyryl-3-t-butyl 1,3-propanedione Compound 3 : 1-p-(2-ethylhexyloxy)styryl-3-t-butyl 1,3-propanedione Compound 4 : 1-p-ethylstyryl-3-t-butyl1,3-propanedione compound 5 : 1-m-methylstyryl-3-t-butyl1,3-propanedione
The compounds which can completely be dissolved in the solvents are indicated as ○.

[2] = Ultraviolet ray absorption, spectrophotometer, 10ppm in ethanol; assay type: physicochemical; design: key: absorbance of 10 ppm ethanol solution, 10 mm quartz cell; details: 10ppm in ethanol (99.5%), quartz cell 10mm×10mm
Experimental: Ultraviolet ray absorptivities of the compound 1,3,5 and comparison (2-hydroxy-4-methoxybenzophenone; UV-A absorbent) were measured according to the following method.
The compound 1,3,5 and the comparison compound were dissolved in ethanol (99.5%) so as to the concentration being 10ppm, and absorption were measured by using quartz cell (10mm×10mm) and the spectrophotometer UVIDEC-610 (JASCO CORPORATION).

| SOLUBILITY SILICONE KF56(10%) [1] | SOLUBILITY SQUALANE(10%) [1] | absorption ([2]; WAVELENGTH 300) | absorption ([2]; WAVELENGTH 310) | absorption ([2]; WAVELENGTH 320) | absorption ([2]; WAVELENGTH 330) | absorption ([2]; WAVELENGTH 340) | absorption ([2]; WAVELENGTH 350) | absorption ([2]; WAVELENGTH 360) | absorption ([2]; WAVELENGTH 370) | absorption ([2]; WAVELENGTH 380) | Structure (SMILES) |
| --- | --- | --- | --- | --- | --- | --- | --- | --- | --- | --- | --- |
| DEPOSITION | DEPOSITION |  |  |  |  |  |  |  |  |  | COc1ccc(C(=O)c2ccccc2)c(O)c1 [COMPARISON 1, 2-hydroxy-4-methoxybenzophenone, reference compound] |
| ○ | ○ | 0.60 | 0.82 | 1.08 | 1.33 | 1.40 | 1.24 | 0.96 | 0.50 | 0.26 | CC(C)(C)C(=O)CC(=O)C=Cc1ccccc1 [Compound 1, 1-styryl-3-t-butyl 1,3-propanedione] |
| ○ | ○ |  |  |  |  |  |  |  |  |  | COc1ccc(C=CC(=O)CC(=O)C(C)(C)C)cc1 [Compound 2, 1-p-methoxystyryl-3-t-butyl 1,3-propanedione] |
| ○ | ○ | 0.20 | 0.28 | 0.40 | 0.56 | 0.76 | 0.92 | 0.97 | 0.89 | 0.65 | CCCCC(CC)COc1ccc(C=CC(=O)CC(=O)C(C)(C)C)cc1 (stereo not drawn) [Compound 3, 1-p-(2-ethylhexyloxy)styryl-3-t-butyl 1,3-propanedione] |
| ○ | ○ |  |  |  |  |  |  |  |  |  | CCc1ccc(C=CC(=O)CC(=O)C(C)(C)C)cc1 [Compound 4, 1-p-ethylstyryl-3-t-butyl1,3-propanedione] |
| ○ | ○ | 0.50 | 0.72 | 1.00 | 1.26 | 1.36 | 1.24 | 0.98 | 0.54 | 0.32 | Cc1cccc(C=CC(=O)CC(=O)C(C)(C)C)c1 [Compound 5, 1-m-methylstyryl-3-t-butyl1,3-propanedione] |
